Reference: PubChem BioAssay (NCI)
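Step 1: Grow cells in 96-well plates. Step 2: Expose to compound for 48 hours at 5 concentrations. Step 3: Interpolate endpoints linearly; if unreached, use highest concentration. TGI: total growth inhibition.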

Experiments:
Assay in all cases: DTP human tumour cell line panel, 48 h
[1] = tested on: SNB-75 CNS
[2] = tested on: OVCAR-3 ovarian
[3] = tested on: SN12C renal
[4] = tested on: IGROV1 ovarian
[5] = tested on: EKVX NSCLC
[6] = tested on: MDA-MB-435
[7] = tested on: CAKI-1 renal
[8] = tested on: MOLT-4 leukemia
[9] = tested on: A498 renal
[10] = tested on: DU-145 prostate
[11] = tested on: BT-549 breast
[12] = tested on: HT29 colon
[13] = tested on: HOP-62 NSCLC
[14] = tested on: PC-3 prostate
[15] = tested on: UACC-257 melanoma
[16] = tested on: OVCAR-8 ovarian
[17] = tested on: SW-620 colon
[18] = tested on: U251 CNS
[19] = tested on: MDA-MB-231 breast
[20] = tested on: A549 NSCLC
[21] = tested on: HCT-15 colon
[22] = tested on: HS 578T breast
[23] = tested on: OVCAR-4 ovarian
[24] = tested on: SF-539 CNS
[25] = tested on: SF-268 CNS
[26] = tested on: COLO 205 colon
[27] = tested on: RXF 393 renal
[28] = tested on: UACC-62 melanoma
[29] = tested on: SK-MEL-28 melanoma
[30] = tested on: RPMI-8226 leukemia
[31] = tested on: MDA-N
[32] = tested on: MCF7 breast
[33] = tested on: HCC-2998 colon
[34] = tested on: NCI-H460 lung
[35] = tested on: NCI-H23 lung
[36] = tested on: SNB-19 CNS
[37] = tested on: T-47D breast
[38] = tested on: NCI-H226 lung
[39] = tested on: SK-MEL-5 melanoma
[40] = tested on: SR leukemia
[41] = tested on: K-562 leukemia
[42] = tested on: HCT-116 colon
[43] = tested on: HL-60(TB) leukemia
[44] = tested on: HOP-92 NSCLC
[45] = tested on: SK-OV-3 ovarian
[46] = tested on: CCRF-CEM leukemia
[47] = tested on: LOX IMVI melanoma
[48] = tested on: 786-0 renal
[49] = tested on: M14 melanoma
[50] = tested on: NCI/ADR-RES ovarian
[51] = tested on: OVCAR-5 ovarian
[52] = tested on: ACHN renal
[53] = tested on: MALME-3M melanoma
[54] = tested on: SK-MEL-2 melanoma
[55] = tested on: NCI-H522 lung
[56] = tested on: KM12 colon
[57] = tested on: KM20L2 colon
[58] = tested on: UO-31 renal
[59] = tested on: HOP-18 NSCLC
[60] = tested on: DLD-1 colon
[61] = tested on: M19-MEL melanoma
[62] = tested on: DMS 273 small cell lung
[63] = tested on: SF-295 CNS
[64] = tested on: TK-10 renal

## C#C[C@]1(O)CC[C@H]2[C@@H]3CCc4cc(OC(=O)c5cccc6cc7ccccc7nc56)ccc4[C@H]3CC[C@@]21C
[1]
  TGI: > 100 µM
[2]
  TGI: 63 µM
[3]
  TGI: 54.7 µM
[4]
  TGI: > 100 µM
[5]
  TGI: > 100 µM
[6]
  TGI: > 100 µM
[7]
  TGI: 65.1 µM
[8]
  TGI: > 100 µM
[9]
  TGI: > 100 µM
[10]
  TGI: 78.9 µM
[11]
  TGI: > 100 µM
[12]
  TGI: > 100 µM
[13]
  TGI: > 100 µM
[14]
  TGI: > 100 µM
[15]
  TGI: > 100 µM
[16]
  TGI: > 100 µM
[17]
  TGI: > 100 µM
[18]
  TGI: > 100 µM
[19]
  TGI: 71.9 µM
[20]
  TGI: > 100 µM
[21]
  TGI: > 100 µM
[22]
  TGI: > 100 µM
[23]
  TGI: > 100 µM
[24]
  TGI: > 100 µM
[25]
  TGI: > 100 µM
[26]
  TGI: 43.7 µM
[27]
  TGI: > 100 µM
[28]
  TGI: 80.4 µM
[29]
  TGI: > 100 µM
[30]
  TGI: > 100 µM
[31]
  TGI: 89.3 µM
[32]
  TGI: > 100 µM
[33]
  TGI: > 100 µM
[34]
  TGI: > 100 µM
[35]
  TGI: > 100 µM
[36]
  TGI: > 100 µM
[37]
  TGI: 34 µM
[38]
  TGI: > 100 µM
[39]
  TGI: 29.5 µM
[40]
  TGI: > 100 µM
[41]
  TGI: > 100 µM
[42]
  TGI: 80.1 µM
[43]
  TGI: > 100 µM
[44]
  TGI: > 100 µM
[45]
  TGI: > 100 µM
[46]
  TGI: > 100 µM
[47]
  TGI: 66 µM
[48]
  TGI: 96.4 µM
[49]
  TGI: > 100 µM
[50]
  TGI: > 100 µM
[51]
  TGI: > 100 µM
[52]
  TGI: > 100 µM
[53]
  TGI: 34.7 µM
[54]
  TGI: > 100 µM
[55]
  TGI: 50.5 µM
[56]
  TGI: 50.6 µM

## COc1ccc2nc3cc(Cl)ccc3c(NCCCN(CCCl)CCCl)c2c1
[1]
  TGI: 0.407 µM
[57]
  TGI: > 100 µM
[2]
  TGI: 0.295 µM
[4]
  TGI: 0.479 µM
[5]
  TGI: 0.539 µM
[7]
  TGI: 0.123 µM
[58]
  TGI: 1.02 µM
[12]
  TGI: 0.333 µM
[15]
  TGI: > 100 µM
[59]
  TGI: 9.4 µM
[20]
  TGI: 0.664 µM
[60]
  TGI: > 100 µM
[21]
  TGI: 1.13 µM
[23]
  TGI: 0.232 µM
[25]
  TGI: 0.3 µM
[61]
  TGI: 0.846 µM
[62]
  TGI: 1.03 µM
[38]
  TGI: 0.311 µM
[41]
  TGI: 0.154 µM
[43]
  TGI: 0.0135 µM
[45]
  TGI: 1.12 µM
[51]
  TGI: 0.31 µM
[63]
  TGI: 0.505 µM
[54]
  TGI: 0.437 µM
[55]
  TGI: 0.163 µM
[56]
  TGI: 0.395 µM

## Brc1ccc2[nH]cc(-c3nc(-c4c[nH]c5ccccc45)cs3)c2c1
[1]
  TGI: 25.1 µM
[2]
  TGI: 15.5 µM
[3]
  TGI: 13.9 µM
[4]
  TGI: 8.75 µM
[5]
  TGI: 12.3 µM
[6]
  TGI: 13.3 µM
[7]
  TGI: 8.2 µM
[9]
  TGI: 8.47 µM
[58]
  TGI: 13.9 µM
[10]
  TGI: 10.4 µM
[11]
  TGI: 23.4 µM
[12]
  TGI: 3.56 µM
[13]
  TGI: 21.7 µM
[14]
  TGI: 9.55 µM
[15]
  TGI: 15.4 µM
[16]
  TGI: 20.9 µM
[17]
  TGI: 13.3 µM
[18]
  TGI: 8.38 µM
[19]
  TGI: 7.68 µM
[20]
  TGI: 15.8 µM
[21]
  TGI: 6.89 µM
[22]
  TGI: > 47.9 µM
[23]
  TGI: 23.1 µM
[24]
  TGI: 10.8 µM
[25]
  TGI: 11.4 µM
[26]
  TGI: 2.76 µM
[27]
  TGI: 16 µM
[28]
  TGI: 6.95 µM
[29]
  TGI: 20.9 µM
[30]
  TGI: > 20.7 µM
[31]
  TGI: 9.35 µM
[32]
  TGI: > 100 µM
[33]
  TGI: 4.17 µM
[34]
  TGI: 4.9 µM
[35]
  TGI: 8.84 µM
[36]
  TGI: 12.2 µM
[37]
  TGI: 31.7 µM
[38]
  TGI: 8.13 µM
[39]
  TGI: 4.01 µM
[40]
  TGI: > 100 µM
[41]
  TGI: > 20.1 µM
[42]
  TGI: 7.15 µM
[43]
  TGI: 16.1 µM
[44]
  TGI: 7.86 µM
[45]
  TGI: 21.4 µM
[46]
  TGI: > 26.2 µM
[47]
  TGI: 4.68 µM
[48]
  TGI: 8.55 µM
[49]
  TGI: 3.73 µM
[50]
  TGI: 11.2 µM
[51]
  TGI: 5.37 µM
[64]
  TGI: 10.5 µM
[63]
  TGI: 10.6 µM
[52]
  TGI: 8.75 µM
[53]
  TGI: 9.39 µM
[54]
  TGI: 8.43 µM
[55]
  TGI: 3.73 µM
[56]
  TGI: 5.1 µM

## COc1ccc(-c2cc(-c3cc(OC)c(OC)c(OC)c3)cc(-c3cc4ccccc4oc3=O)n2)cc1
[1]
  TGI: 9.61 µM
[2]
  TGI: 68.3 µM
[3]
  TGI: 49.7 µM
[4]
  TGI: 24.6 µM
[5]
  TGI: 31.5 µM
[6]
  TGI: > 100 µM
[7]
  TGI: 17.3 µM
[8]
  TGI: > 100 µM
[9]
  TGI: 17.6 µM
[58]
  TGI: 24.7 µM
[10]
  TGI: 56.1 µM
[11]
  TGI: 27.8 µM
[12]
  TGI: > 100 µM
[13]
  TGI: 5.8 µM
[14]
  TGI: 76.8 µM
[15]
  TGI: 63.3 µM
[16]
  TGI: 16.3 µM
[17]
  TGI: > 100 µM
[18]
  TGI: 12.5 µM
[19]
  TGI: 8.07 µM
[20]
  TGI: 60 µM
[21]
  TGI: > 100 µM
[22]
  TGI: 7.14 µM
[23]
  TGI: 21.4 µM
[24]
  TGI: 7.88 µM
[25]
  TGI: 16.7 µM
[26]
  TGI: > 100 µM
[27]
  TGI: 16.1 µM
[28]
  TGI: 33.6 µM
[31]
  TGI: 68 µM
[32]
  TGI: > 100 µM
[33]
  TGI: 80.5 µM
[34]
  TGI: 17.8 µM
[35]
  TGI: 29.8 µM
[36]
  TGI: 37.7 µM
[37]
  TGI: 26 µM
[38]
  TGI: 22.2 µM
[39]
  TGI: 18.6 µM
[40]
  TGI: > 100 µM
[41]
  TGI: > 100 µM
[42]
  TGI: 18.2 µM
[43]
  TGI: > 100 µM
[44]
  TGI: 16.8 µM
[45]
  TGI: 14.5 µM
[46]
  TGI: > 100 µM
[47]
  TGI: > 100 µM
[48]
  TGI: 5.34 µM
[49]
  TGI: > 100 µM
[50]
  TGI: 31.6 µM
[64]
  TGI: 21.1 µM
[63]
  TGI: 19.4 µM
[52]
  TGI: 16.3 µM
[53]
  TGI: 23.9 µM
[54]
  TGI: 62.2 µM
[55]
  TGI: 34.5 µM
[56]
  TGI: > 100 µM
